# Source: PubChem BioAssay (NCI)
#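 Growth conditions: 96-well plates. Treatment: test compound, 48 hours, 5 concentrations. Analysis: linear interpolation between bracketing concentrations; unreached endpoints set to highest concentration. TGI: concentration producing complete growth inhibition.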
# Columns and labels:
# Assay in all cases: growth of human tumour cells (NCI), 48 h
# 786-0 renal = tested on: 786-0 renal
# A549 NSCLC = tested on: A549 NSCLC
# ACHN renal = tested on: ACHN renal
# CCRF-CEM leukemia = tested on: CCRF-CEM leukemia
# COLO 205 colon = tested on: COLO 205 colon
# DLD-1 colon = tested on: DLD-1 colon
# DMS 114 small cell lung = tested on: DMS 114 small cell lung
# DMS 273 small cell lung = tested on: DMS 273 small cell lung
# EKVX NSCLC = tested on: EKVX NSCLC
# HCT-116 colon = tested on: HCT-116 colon
# HCT-15 colon = tested on: HCT-15 colon
# HL-60(TB) leukemia = tested on: HL-60(TB) leukemia
# HOP-18 NSCLC = tested on: HOP-18 NSCLC
# HOP-62 NSCLC = tested on: HOP-62 NSCLC
# HT29 colon = tested on: HT29 colon
# IGROV1 ovarian = tested on: IGROV1 ovarian
# K-562 leukemia = tested on: K-562 leukemia
# KM12 colon = tested on: KM12 colon
# KM20L2 colon = tested on: KM20L2 colon
# LOX IMVI melanoma = tested on: LOX IMVI melanoma
# M14 melanoma = tested on: M14 melanoma
# M19-MEL melanoma = tested on: M19-MEL melanoma
# MALME-3M melanoma = tested on: MALME-3M melanoma
# MOLT-4 leukemia = tested on: MOLT-4 leukemia
# NCI-H23 lung = tested on: NCI-H23 lung
# NCI-H460 lung = tested on: NCI-H460 lung
# NCI-H522 lung = tested on: NCI-H522 lung
# OVCAR-3 ovarian = tested on: OVCAR-3 ovarian
# OVCAR-8 ovarian = tested on: OVCAR-8 ovarian
# RPMI-8226 leukemia = tested on: RPMI-8226 leukemia
# RXF 393 renal = tested on: RXF 393 renal
# SF-295 CNS = tested on: SF-295 CNS
# SF-539 CNS = tested on: SF-539 CNS
# SK-MEL-2 melanoma = tested on: SK-MEL-2 melanoma
# SK-MEL-28 melanoma = tested on: SK-MEL-28 melanoma
# SK-MEL-5 melanoma = tested on: SK-MEL-5 melanoma
# SK-OV-3 ovarian = tested on: SK-OV-3 ovarian
# SN12C renal = tested on: SN12C renal
# SNB-75 CNS = tested on: SNB-75 CNS
# SW-620 colon = tested on: SW-620 colon
# TK-10 renal = tested on: TK-10 renal
# U251 CNS = tested on: U251 CNS
# UACC-257 melanoma = tested on: UACC-257 melanoma
# UACC-62 melanoma = tested on: UACC-62 melanoma
# A498 renal = tested on: A498 renal
# BT-549 breast = tested on: BT-549 breast
# CAKI-1 renal = tested on: CAKI-1 renal
# DU-145 prostate = tested on: DU-145 prostate
# HCC-2998 colon = tested on: HCC-2998 colon
# HOP-92 NSCLC = tested on: HOP-92 NSCLC
# HS 578T breast = tested on: HS 578T breast
# MCF7 breast = tested on: MCF7 breast
# MDA-MB-231 breast = tested on: MDA-MB-231 breast
# MDA-MB-435 = tested on: MDA-MB-435
# MDA-N = tested on: MDA-N
# NCI-H226 lung = tested on: NCI-H226 lung
# NCI/ADR-RES ovarian = tested on: NCI/ADR-RES ovarian
# OVCAR-4 ovarian = tested on: OVCAR-4 ovarian
# OVCAR-5 ovarian = tested on: OVCAR-5 ovarian
# PC-3 prostate = tested on: PC-3 prostate
# SF-268 CNS = tested on: SF-268 CNS
# SNB-19 CNS = tested on: SNB-19 CNS
# SR leukemia = tested on: SR leukemia
# T-47D breast = tested on: T-47D breast
# UO-31 renal = tested on: UO-31 renal
# SNB-78 CNS = tested on: SNB-78 CNS
smiles,measurement,setting,value
O=C(Nc1cc(Cl)ccc1Cl)c1cc2ccccc2oc1=O,TGI,786-0 renal,> 100 µM
same,TGI,A549 NSCLC,> 100 µM
same,TGI,ACHN renal,> 100 µM
same,TGI,CCRF-CEM leukemia,> 100 µM
same,TGI,COLO 205 colon,> 100 µM
same,TGI,DLD-1 colon,> 100 µM
same,TGI,DMS 114 small cell lung,> 100 µM
same,TGI,DMS 273 small cell lung,> 100 µM
same,TGI,EKVX NSCLC,> 100 µM
same,TGI,HCT-116 colon,> 100 µM
same,TGI,HCT-15 colon,> 100 µM
same,TGI,HL-60(TB) leukemia,> 100 µM
same,TGI,HOP-18 NSCLC,83 µM
same,TGI,HOP-62 NSCLC,> 100 µM
same,TGI,HT29 colon,> 100 µM
same,TGI,IGROV1 ovarian,> 100 µM
same,TGI,K-562 leukemia,> 100 µM
same,TGI,KM12 colon,> 100 µM
same,TGI,KM20L2 colon,> 100 µM
same,TGI,LOX IMVI melanoma,> 100 µM
same,TGI,M14 melanoma,> 100 µM
same,TGI,M19-MEL melanoma,> 100 µM
same,TGI,MALME-3M melanoma,90.3 µM
same,TGI,MOLT-4 leukemia,> 100 µM
same,TGI,NCI-H23 lung,> 100 µM
same,TGI,NCI-H460 lung,> 100 µM
same,TGI,NCI-H522 lung,> 100 µM
same,TGI,OVCAR-3 ovarian,> 100 µM
same,TGI,OVCAR-8 ovarian,> 100 µM
same,TGI,RPMI-8226 leukemia,> 100 µM
same,TGI,RXF 393 renal,> 100 µM
same,TGI,SF-295 CNS,> 100 µM
same,TGI,SF-539 CNS,> 100 µM
same,TGI,SK-MEL-2 melanoma,> 100 µM
same,TGI,SK-MEL-28 melanoma,> 100 µM
same,TGI,SK-MEL-5 melanoma,> 100 µM
same,TGI,SK-OV-3 ovarian,> 100 µM
same,TGI,SN12C renal,> 100 µM
same,TGI,SNB-75 CNS,62.9 µM
same,TGI,SW-620 colon,> 100 µM
same,TGI,TK-10 renal,> 100 µM
same,TGI,U251 CNS,> 100 µM
same,TGI,UACC-257 melanoma,> 100 µM
same,TGI,UACC-62 melanoma,> 100 µM
NS(=O)(=O)c1ccc(NCc2cccc3c(=O)c4ccc(Cl)cc4oc23)cc1,TGI,786-0 renal,> 100 µM
same,TGI,A498 renal,> 100 µM
same,TGI,A549 NSCLC,> 100 µM
same,TGI,ACHN renal,> 100 µM
same,TGI,BT-549 breast,> 96.7 µM
same,TGI,CAKI-1 renal,> 85.7 µM
same,TGI,CCRF-CEM leukemia,> 52.6 µM
same,TGI,COLO 205 colon,> 100 µM
same,TGI,DU-145 prostate,> 100 µM
same,TGI,EKVX NSCLC,> 65.5 µM
same,TGI,HCC-2998 colon,> 100 µM
same,TGI,HCT-116 colon,> 100 µM
same,TGI,HCT-15 colon,> 100 µM
same,TGI,HL-60(TB) leukemia,9.47 µM
same,TGI,HOP-62 NSCLC,> 100 µM
same,TGI,HOP-92 NSCLC,57 µM
same,TGI,HS 578T breast,82.3 µM
same,TGI,HT29 colon,> 100 µM
same,TGI,IGROV1 ovarian,> 68.8 µM
same,TGI,K-562 leukemia,> 100 µM
same,TGI,KM12 colon,> 70.7 µM
same,TGI,LOX IMVI melanoma,> 100 µM
same,TGI,M14 melanoma,> 93.1 µM
same,TGI,MALME-3M melanoma,> 66.5 µM
same,TGI,MCF7 breast,> 67 µM
same,TGI,MDA-MB-231 breast,> 100 µM
same,TGI,MDA-MB-435,> 100 µM
same,TGI,MDA-N,> 80.2 µM
same,TGI,MOLT-4 leukemia,> 100 µM
same,TGI,NCI-H226 lung,> 100 µM
same,TGI,NCI-H23 lung,> 80 µM
same,TGI,NCI-H522 lung,99.7 µM
same,TGI,NCI/ADR-RES ovarian,> 100 µM
same,TGI,OVCAR-3 ovarian,> 100 µM
same,TGI,OVCAR-4 ovarian,> 100 µM
same,TGI,OVCAR-5 ovarian,> 100 µM
same,TGI,OVCAR-8 ovarian,> 67.2 µM
same,TGI,PC-3 prostate,> 100 µM
same,TGI,RPMI-8226 leukemia,> 92.2 µM
same,TGI,RXF 393 renal,> 100 µM
same,TGI,SF-268 CNS,64.4 µM
same,TGI,SF-295 CNS,> 100 µM
same,TGI,SF-539 CNS,> 64.6 µM
same,TGI,SK-MEL-2 melanoma,> 100 µM
same,TGI,SK-MEL-28 melanoma,> 100 µM
same,TGI,SK-MEL-5 melanoma,> 100 µM
same,TGI,SK-OV-3 ovarian,> 100 µM
same,TGI,SN12C renal,> 100 µM
same,TGI,SNB-19 CNS,> 61.8 µM
same,TGI,SNB-75 CNS,> 96.6 µM
same,TGI,SR leukemia,> 51.3 µM
same,TGI,SW-620 colon,> 100 µM
same,TGI,T-47D breast,> 100 µM
same,TGI,TK-10 renal,> 100 µM
same,TGI,U251 CNS,> 100 µM
same,TGI,UACC-257 melanoma,> 100 µM
same,TGI,UACC-62 melanoma,> 100 µM
same,TGI,UO-31 renal,> 93.2 µM
CCN(CC)CCN1C(=O)c2cccc3cc(N)cc(c23)C1=O,TGI,786-0 renal,> 100 µM
same,TGI,A498 renal,57.5 µM
same,TGI,A549 NSCLC,> 100 µM
same,TGI,ACHN renal,> 100 µM
same,TGI,BT-549 breast,40.4 µM
same,TGI,CAKI-1 renal,> 100 µM
same,TGI,CCRF-CEM leukemia,> 100 µM
same,TGI,COLO 205 colon,16.8 µM
same,TGI,DU-145 prostate,> 100 µM
same,TGI,EKVX NSCLC,22.8 µM
same,TGI,HCC-2998 colon,21.7 µM
same,TGI,HCT-116 colon,38.5 µM
same,TGI,HCT-15 colon,> 100 µM
same,TGI,HL-60(TB) leukemia,50.5 µM
same,TGI,HOP-62 NSCLC,40.3 µM
same,TGI,HOP-92 NSCLC,> 100 µM
same,TGI,HS 578T breast,> 100 µM
same,TGI,HT29 colon,18.1 µM
same,TGI,IGROV1 ovarian,> 100 µM
same,TGI,K-562 leukemia,44.2 µM
same,TGI,KM12 colon,66.9 µM
same,TGI,M14 melanoma,32.1 µM
same,TGI,MALME-3M melanoma,26.1 µM
same,TGI,MCF7 breast,> 100 µM
same,TGI,MDA-MB-231 breast,51.9 µM
same,TGI,MDA-MB-435,22.2 µM
same,TGI,MDA-N,23.8 µM
same,TGI,MOLT-4 leukemia,> 100 µM
same,TGI,NCI-H226 lung,36.6 µM
same,TGI,NCI-H23 lung,20.3 µM
same,TGI,NCI-H460 lung,18.2 µM
same,TGI,NCI-H522 lung,21.8 µM
same,TGI,NCI/ADR-RES ovarian,58.8 µM
same,TGI,OVCAR-3 ovarian,44.3 µM
same,TGI,OVCAR-4 ovarian,48.3 µM
same,TGI,OVCAR-5 ovarian,15.7 µM
same,TGI,OVCAR-8 ovarian,> 100 µM
same,TGI,PC-3 prostate,> 100 µM
same,TGI,RPMI-8226 leukemia,39.8 µM
same,TGI,RXF 393 renal,34.1 µM
same,TGI,SF-268 CNS,> 100 µM
same,TGI,SF-295 CNS,32.5 µM
same,TGI,SF-539 CNS,20.4 µM
same,TGI,SK-MEL-2 melanoma,37.6 µM
same,TGI,SK-MEL-28 melanoma,36.1 µM
same,TGI,SK-MEL-5 melanoma,26.6 µM
same,TGI,SK-OV-3 ovarian,69.3 µM
same,TGI,SN12C renal,27.1 µM
same,TGI,SNB-19 CNS,> 100 µM
same,TGI,SNB-75 CNS,37.1 µM
same,TGI,SR leukemia,39.8 µM
same,TGI,SW-620 colon,83.3 µM
same,TGI,T-47D breast,> 100 µM
same,TGI,TK-10 renal,> 100 µM
same,TGI,U251 CNS,> 100 µM
same,TGI,UACC-257 melanoma,25.7 µM
same,TGI,UACC-62 melanoma,24.6 µM
same,TGI,UO-31 renal,66.8 µM
N#CN1CCC2CC(=O)CCC2C1 (stereo not drawn),TGI,786-0 renal,> 100 µM
same,TGI,A549 NSCLC,> 100 µM
same,TGI,ACHN renal,> 100 µM
same,TGI,CAKI-1 renal,> 100 µM
same,TGI,DMS 114 small cell lung,> 100 µM
same,TGI,HCC-2998 colon,> 100 µM
same,TGI,HCT-116 colon,> 100 µM
same,TGI,HCT-15 colon,> 100 µM
same,TGI,HL-60(TB) leukemia,> 100 µM
same,TGI,HOP-92 NSCLC,> 100 µM
same,TGI,IGROV1 ovarian,> 100 µM
same,TGI,K-562 leukemia,> 100 µM
same,TGI,KM12 colon,> 100 µM
same,TGI,KM20L2 colon,> 100 µM
same,TGI,LOX IMVI melanoma,> 100 µM
same,TGI,M14 melanoma,> 100 µM
same,TGI,MALME-3M melanoma,> 100 µM
same,TGI,MOLT-4 leukemia,> 100 µM
same,TGI,NCI-H226 lung,> 100 µM
same,TGI,NCI-H23 lung,> 100 µM
same,TGI,OVCAR-3 ovarian,> 100 µM
same,TGI,OVCAR-4 ovarian,> 100 µM
same,TGI,OVCAR-5 ovarian,> 100 µM
same,TGI,RXF 393 renal,> 100 µM
same,TGI,SF-268 CNS,> 100 µM
same,TGI,SK-MEL-2 melanoma,> 100 µM
same,TGI,SK-MEL-28 melanoma,> 100 µM
same,TGI,SK-OV-3 ovarian,> 100 µM
same,TGI,SN12C renal,> 100 µM
same,TGI,SNB-19 CNS,> 100 µM
same,TGI,SNB-75 CNS,> 100 µM
same,TGI,SNB-78 CNS,> 100 µM
same,TGI,SR leukemia,> 100 µM
same,TGI,SW-620 colon,> 100 µM
same,TGI,TK-10 renal,> 100 µM
same,TGI,U251 CNS,> 100 µM
same,TGI,UACC-62 melanoma,> 100 µM
same,TGI,UO-31 renal,> 100 µM
